{
  "source": "paper PMC11423184",
  "about": "(Advanced Science, 2024)",
  "target": "T1, SWELL1 channel (VRAC; SWELL1 = LRRC8A) (Mus musculus, UniProt Q80WG5)",
  "T1 construct": "endogenous VRAC in mouse primary astrocytes and hippocampal CA1 neurons, full length; neuronal current absent in NEX-cKO",
  "T1 sequence (Q80WG5 1-810)": "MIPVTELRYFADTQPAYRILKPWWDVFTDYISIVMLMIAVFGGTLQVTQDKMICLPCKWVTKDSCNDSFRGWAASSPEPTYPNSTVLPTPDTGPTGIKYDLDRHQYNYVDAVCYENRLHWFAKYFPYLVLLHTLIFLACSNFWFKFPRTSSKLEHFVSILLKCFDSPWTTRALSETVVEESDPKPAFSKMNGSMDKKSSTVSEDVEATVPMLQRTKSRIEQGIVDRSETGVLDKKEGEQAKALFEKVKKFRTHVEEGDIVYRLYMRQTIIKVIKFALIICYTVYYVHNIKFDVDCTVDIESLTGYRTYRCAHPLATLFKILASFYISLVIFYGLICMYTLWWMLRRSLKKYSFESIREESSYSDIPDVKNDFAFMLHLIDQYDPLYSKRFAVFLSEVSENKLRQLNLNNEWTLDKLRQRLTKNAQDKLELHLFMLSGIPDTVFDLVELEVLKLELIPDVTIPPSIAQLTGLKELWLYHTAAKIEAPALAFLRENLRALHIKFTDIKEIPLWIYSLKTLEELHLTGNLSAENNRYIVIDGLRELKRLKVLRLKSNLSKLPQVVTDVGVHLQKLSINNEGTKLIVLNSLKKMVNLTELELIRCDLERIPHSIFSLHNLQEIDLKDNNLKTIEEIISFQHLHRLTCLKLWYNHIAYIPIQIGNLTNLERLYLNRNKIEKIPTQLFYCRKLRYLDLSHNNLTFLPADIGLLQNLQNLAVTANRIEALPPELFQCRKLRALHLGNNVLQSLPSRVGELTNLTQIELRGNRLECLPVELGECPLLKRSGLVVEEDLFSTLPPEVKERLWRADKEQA",
  "experiment": "whole-cell patch clamp, primary astrocytes",
  "assay_type": "cell-based",
  "settings": "hypotonicity-induced SWELL1 currents; concentration not given",
  "data": [
    {"smiles": "CC(=O)CC(c1ccccc1)c1c(O)c2ccccc2oc1=O", "note": "(stereo not shown) [Warfarin]", "values": [
      {"measurement": "whole-cell patch clamp, primary astrocytes", "value": "Warfarin, another anticoagulant of the same family, failed to inhibit hypotonicity‐induced SWELL1 currents"}
    ]}
  ]
}
